From PubChem BioAssay AID248 (DTP/NCI, 2004)
Toxic doses and inconclusive results are not listed. No stated cut-off is given here; in the data, active means T/C of 150% or more; inactive means T/C below 125%.

System: L1210 leukemia ip in BDF1 mice, survival T/C
Test: NCI In Vivo Anticancer Drug Screen. Data for tumor model L1210 Leukemia (intraperitoneal) in B6D2F1 (BDF1) mice
Details: endpoint: mean survival time, higher = longer survival
Method in brief: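 Transplantable tumor model; survival measured in treated vs vehicle control mice. Value = treated/control.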

[1] = dose: 100.0 mg/kg/injection, schedule: Q01DX009 (ip), vehicle: saline with Tween-80
[2] = dose: 100.0 mg/kg/injection, schedule: Q04DX003 (ip), vehicle: saline with Tween-80
[3] = dose: 200.0 mg/kg/injection, schedule: Q01DX009 (ip), vehicle: saline with Tween-80
[4] = dose: 200.0 mg/kg/injection, schedule: Q04DX003 (ip), vehicle: saline with Tween-80
[5] = dose: 400.0 mg/kg/injection, schedule: Q04DX003 (ip), vehicle: saline with Tween-80
[6] = dose: 100.0 mg/kg/injection, schedule: Q01DX009 (ip), vehicle: Klucel (hydroxypropylcellulose) (HPC)
[7] = dose: 200.0 mg/kg/injection, schedule: Q01DX009 (ip), vehicle: Klucel (hydroxypropylcellulose) (HPC)
[8] = dose: 400.0 mg/kg/injection, schedule: Q01DX009 (ip), vehicle: Klucel (hydroxypropylcellulose) (HPC)
[9] = dose: 100.0 mg/kg/injection, schedule: Q01DX001 (ip), vehicle: carboxymethylcellulose (CMC)
[10] = dose: 200.0 mg/kg/injection, schedule: Q01DX001 (ip), vehicle: carboxymethylcellulose (CMC)
[11] = dose: 100.0 mg/kg/injection, schedule: Q04DX003 (ip), vehicle: Klucel (hydroxypropylcellulose) (HPC)
[12] = dose: 200.0 mg/kg/injection, schedule: Q04DX003 (ip), vehicle: Klucel (hydroxypropylcellulose) (HPC)
[13] = dose: 400.0 mg/kg/injection, schedule: Q04DX003 (ip), vehicle: Klucel (hydroxypropylcellulose) (HPC)
[14] = dose: 100.0 mg/kg/injection, schedule: Q04DX003 (ip), vehicle: other
[15] = dose: 200.0 mg/kg/injection, schedule: Q04DX003 (ip), vehicle: other
[16] = dose: 400.0 mg/kg/injection, schedule: Q04DX003 (ip), vehicle: other
[17] = dose: 100.0 mg/kg/injection, schedule: Q01DX001 (ip), vehicle: Klucel (hydroxypropylcellulose) (HPC)
[18] = dose: 200.0 mg/kg/injection, schedule: Q01DX001 (ip), vehicle: Klucel (hydroxypropylcellulose) (HPC)

Measured: T/C

CCCNC(=O)Nc1cc(Cl)ccc1OC
inactive: [1] 100 % of control | [2] 95 % of control | [3] 94 % of control | [4] 103 % of control | dose: 400.0 mg/kg/injection, schedule: Q01DX009 (ip), vehicle: saline with Tween-80 96 % of control | [5] 94 % of control

CCOc1ccccc1NC(=O)NCC(=O)N/N=C/c1ccc(O)c(OC)c1
inactive: [6] 95 % of control | [7] 90 % of control | [8] 91 % of control

Nc1ccc(/C=C/c2ccnc3ccccc23)cc1
inactive: dose: 0.5 mg/kg/injection, schedule: Q01DX015 (ip), vehicle: saline 101 % of control | dose: 1.0 mg/kg/injection, schedule: Q01DX015 (ip), vehicle: saline 101 % of control | dose: 2.0 mg/kg/injection, schedule: Q01DX015 (ip), vehicle: saline 101 % of control | dose: 4.0 mg/kg/injection, schedule: Q01DX015 (ip), vehicle: saline 101 % of control | dose: 50.0 mg/kg/injection, schedule: Q01DX001 (ip), vehicle: saline 95 % of control | dose: 100.0 mg/kg/injection, schedule: Q01DX001 (ip), vehicle: saline 97 % of control | dose: 200.0 mg/kg/injection, schedule: Q01DX001 (ip), vehicle: saline 95 % of control | dose: 400.0 mg/kg/injection, schedule: Q01DX001 (ip), vehicle: saline 105 % of control

CCSc1nc(N)nc2c1ncn2C
inactive: dose: 100.0 mg/kg/injection, schedule: Q01DX001 (ip), vehicle: acetone 94 % of control | dose: 200.0 mg/kg/injection, schedule: Q01DX001 (ip), vehicle: acetone 91 % of control | dose: 400.0 mg/kg/injection, schedule: Q01DX001 (ip), vehicle: acetone 90 % of control

O=C(Nc1ccc(Cl)cc1)Nc1ccc(Cl)c(C(F)(F)F)c1
inactive: [9] 108 % of control | [10] 111 % of control | dose: 400.0 mg/kg/injection, schedule: Q01DX001 (ip), vehicle: carboxymethylcellulose (CMC) 111 % of control

C=C(Cl)CNC(=O)c1ccc([N+](=O)[O-])cc1
inactive: [11] 98 % of control | [12] 104 % of control

CCNc1nc(C)c2nc(C(=O)OCC)c(=O)[nH]c2n1
inactive: dose: 50.0 mg/kg/injection, schedule: Q01DX009 (ip), vehicle: Klucel (hydroxypropylcellulose) (HPC) 95 % of control | [6] 95 % of control | [7] 98 % of control

N#Cc1cnc(N)nc1N
inactive: dose: 50.0 mg/kg/injection, schedule: Q04DX003 (ip), vehicle: Klucel (hydroxypropylcellulose) (HPC) 113 % of control | dose: 75.0 mg/kg/injection, schedule: Q01DX001 (ip), vehicle: carboxymethylcellulose (CMC) 92 % of control | dose: 75.0 mg/kg/injection, schedule: Q01DX009 (ip), vehicle: Klucel (hydroxypropylcellulose) (HPC) 102 % of control | [11] 97 % of control | dose: 150.0 mg/kg/injection, schedule: Q01DX001 (ip), vehicle: carboxymethylcellulose (CMC) 92 % of control | dose: 150.0 mg/kg/injection, schedule: Q01DX009 (ip), vehicle: Klucel (hydroxypropylcellulose) (HPC) 102 % of control | [12] 108 % of control

CSCC#N
inactive: dose: 100.0 mg/kg/injection, schedule: Q01DX001 (ip), vehicle: saline with Tween-80 93 % of control | dose: 200.0 mg/kg/injection, schedule: Q01DX001 (ip), vehicle: saline with Tween-80 96 % of control | dose: 400.0 mg/kg/injection, schedule: Q01DX001 (ip), vehicle: saline with Tween-80 96 % of control

COC(=O)c1ccc([N+](=O)[O-])c(O)c1
inactive: [6] 96 % of control | [11] 96 % of control | [7] 98 % of control | [12] 100 % of control | [8] 88 % of control | [13] 102 % of control

[CH3][Sn]([CH3])=[O]
inactive: dose: 5.0 mg/kg/injection, schedule: Q01DX001 (ip), vehicle: other 95 % of control | dose: 5.0 mg/kg/injection, schedule: Q01DX001 (ip), vehicle: saline 107 % of control | dose: 10.0 mg/kg/injection, schedule: Q01DX001 (ip), vehicle: other 98 % of control | dose: 10.0 mg/kg/injection, schedule: Q01DX001 (ip), vehicle: saline 98 % of control | dose: 20.0 mg/kg/injection, schedule: Q01DX001 (ip), vehicle: other 93 % of control | dose: 20.0 mg/kg/injection, schedule: Q01DX001 (ip), vehicle: saline 108 % of control | dose: 40.0 mg/kg/injection, schedule: Q01DX001 (ip), vehicle: other 103 % of control | dose: 40.0 mg/kg/injection, schedule: Q01DX001 (ip), vehicle: saline 95 % of control

Nc1nncc(-c2cnnc(N)n2)n1
inactive: dose: 50.0 mg/kg/injection, schedule: Q04DX002 (ip), vehicle: Klucel (hydroxypropylcellulose) (HPC) 111 % of control | dose: 100.0 mg/kg/injection, schedule: Q04DX002 (ip), vehicle: Klucel (hydroxypropylcellulose) (HPC) 104 % of control | dose: 200.0 mg/kg/injection, schedule: Q04DX002 (ip), vehicle: Klucel (hydroxypropylcellulose) (HPC) 111 % of control

Nc1ccccc1N=Cc1cc(F)ccc1[N+](=O)[O-]
inactive: [14] 97 % of control | [15] 102 % of control | [16] 114 % of control

C=C(Br)CNC(=O)Nc1ccccc1
inactive: [2] 98 % of control | [4] 95 % of control | [5] 102 % of control

CCCCCCC(C)CC(CCCCCC)NCCOC(=O)c1ccc([N+](=O)[O-])cc1 (centres undefined)
inactive: dose: 75.0 mg/kg/injection, schedule: Q01DX001 (ip), vehicle: saline 105 % of control | dose: 150.0 mg/kg/injection, schedule: Q01DX001 (ip), vehicle: saline 100 % of control | dose: 300.0 mg/kg/injection, schedule: Q01DX001 (ip), vehicle: saline 121 % of control

CC(=O)Nc1cc(C)c(C)cc1[N+](=O)[O-]
inactive: [6] 102 % of control | [11] 96 % of control | [7] 100 % of control | [12] 102 % of control | [8] 105 % of control | [13] 103 % of control

O=Cc1cc(O)ccc1[N+](=O)[O-]
inactive: [1] 98 % of control | [2] 103 % of control | [3] 88 % of control | [4] 104 % of control | [5] 109 % of control

C=C(Br)CNC(=O)C(C)C
inactive: dose: 5.0 mg/kg/injection, schedule: Q04DX003 (ip), vehicle: saline with Tween-80 102 % of control | dose: 10.0 mg/kg/injection, schedule: Q04DX003 (ip), vehicle: saline with Tween-80 103 % of control | dose: 20.0 mg/kg/injection, schedule: Q04DX003 (ip), vehicle: saline with Tween-80 102 % of control

CCOc1ccc([N+](=O)[O-])cn1
inactive: [6] 101 % of control | [11] 93 % of control | [7] 102 % of control | [12] 104 % of control | [8] 106 % of control | [13] 93 % of control

COC(=O)C1CCC2(C)CCC(=O)C(C)C2C1 (centres undefined)
inactive: [17] 101 % of control | [11] 104 % of control | [18] 104 % of control | [12] 106 % of control | dose: 400.0 mg/kg/injection, schedule: Q01DX001 (ip), vehicle: Klucel (hydroxypropylcellulose) (HPC) 92 % of control | [13] 104 % of control

O=C(CC1OC1c1ccccc1)c1ccccc1 (centres undefined)
inactive: dose: 50.0 mg/kg/injection, schedule: Q01DX001 (ip), vehicle: Klucel (hydroxypropylcellulose) (HPC) 110 % of control | [17] 100 % of control | [14] 99 % of control | [18] 102 % of control | [15] 94 % of control | [16] 101 % of control

Oc1ccc(Cl)c2cccnc12
inactive: dose: 4.0 mg/kg/injection, schedule: Q01DX015 (ip), vehicle: carboxymethylcellulose (CMC) 103 % of control | dose: 8.0 mg/kg/injection, schedule: Q01DX015 (ip), vehicle: carboxymethylcellulose (CMC) 106 % of control | dose: 16.0 mg/kg/injection, schedule: Q01DX015 (ip), vehicle: carboxymethylcellulose (CMC) 103 % of control | dose: 32.0 mg/kg/injection, schedule: Q01DX015 (ip), vehicle: carboxymethylcellulose (CMC) 95 % of control | dose: 64.0 mg/kg/injection, schedule: Q01DX015 (ip), vehicle: carboxymethylcellulose (CMC) 102 % of control | [9] 90 % of control | dose: 128.0 mg/kg/injection, schedule: Q01DX015 (ip), vehicle: carboxymethylcellulose (CMC) 100 % of control | [10] 103 % of control
